What was measured:
Experiment in all cases: kinase binding constant, 11-point dose response (T7 phage, qPCR)
Details in all cases: >30 = no inhibition at highest concentration tested
[1] = biological target: T1, RSK1 (Homo sapiens, UniProt Q15418)
T1 construct: RPS6KA1(Kin.Dom.2-C-terminal)
Method: (§1) Kinase inhibition studies were performed by methods well known in the prior art (Fabian, M. A. et al. Nat. Biotechnol. 2005, 23, 329). Briefly, kinase-tagged T7 phage strains were prepared in an E. coli host derived from the BL21 strain. E. coli were grown to log-phase and infected with T7 phage and incubated with shaking at 32° C. until lysis. The lysates were centrifuged and filtered to remove cell debris. […] The liganded beads were blocked with excess biotin and washed with blocking buffer (SeaBlock (Pierce); 1% BSA, 0.05% Tween 20, 1 mM DTT) to remove unbound ligand and to reduce non-specific binding. […] All reactions were performed in polystyrene 96-well plates in a final volume of 0.135 ml. […] The kinase concentration in the eluates was measured by qPCR.
(§2) An 11-point 3-fold serial dilution of each test compound (from 30 μM to 0.5 nM) was prepared in 100% DMSO at 100× final test concentration and subsequently diluted to 1× in the assay (final DMSO concentration=1%). Binding constants (KDS) were calculated with a standard dose-response curve using a 5-point sigmoidal (Hill) equation.

[2] = biological target: AAK1 (Homo sapiens, UniProt Q2M2I8)
Chain of AAK1 (Q2M2I8 whole entry): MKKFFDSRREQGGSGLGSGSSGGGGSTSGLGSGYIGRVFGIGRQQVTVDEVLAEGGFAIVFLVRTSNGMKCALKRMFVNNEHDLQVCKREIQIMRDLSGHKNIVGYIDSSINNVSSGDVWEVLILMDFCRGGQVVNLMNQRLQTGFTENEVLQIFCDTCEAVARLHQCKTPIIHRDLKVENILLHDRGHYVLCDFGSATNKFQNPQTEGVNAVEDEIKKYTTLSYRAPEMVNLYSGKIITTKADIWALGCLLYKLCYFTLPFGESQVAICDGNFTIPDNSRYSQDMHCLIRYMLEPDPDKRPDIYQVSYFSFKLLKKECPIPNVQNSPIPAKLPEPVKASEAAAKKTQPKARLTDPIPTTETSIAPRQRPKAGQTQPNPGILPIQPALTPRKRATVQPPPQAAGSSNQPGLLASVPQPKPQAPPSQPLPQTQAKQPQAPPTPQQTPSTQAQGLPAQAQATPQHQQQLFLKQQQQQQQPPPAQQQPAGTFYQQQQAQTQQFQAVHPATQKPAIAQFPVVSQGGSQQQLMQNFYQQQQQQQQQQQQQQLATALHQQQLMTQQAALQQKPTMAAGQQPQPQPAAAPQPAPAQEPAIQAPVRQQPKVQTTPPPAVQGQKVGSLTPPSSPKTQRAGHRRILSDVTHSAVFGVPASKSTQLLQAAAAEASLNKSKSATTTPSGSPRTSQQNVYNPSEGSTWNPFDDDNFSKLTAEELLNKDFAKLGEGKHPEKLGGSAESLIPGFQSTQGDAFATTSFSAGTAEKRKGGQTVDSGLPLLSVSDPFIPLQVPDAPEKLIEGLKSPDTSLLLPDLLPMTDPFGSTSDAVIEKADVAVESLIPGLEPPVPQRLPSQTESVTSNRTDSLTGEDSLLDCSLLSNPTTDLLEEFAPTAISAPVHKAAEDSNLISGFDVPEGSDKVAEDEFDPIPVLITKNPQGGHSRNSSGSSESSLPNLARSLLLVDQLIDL
Method: as §1, §2

[3] = biological target: T2, ULK1 (Homo sapiens, UniProt O75385)
T2 sequence (O75385 1-1050): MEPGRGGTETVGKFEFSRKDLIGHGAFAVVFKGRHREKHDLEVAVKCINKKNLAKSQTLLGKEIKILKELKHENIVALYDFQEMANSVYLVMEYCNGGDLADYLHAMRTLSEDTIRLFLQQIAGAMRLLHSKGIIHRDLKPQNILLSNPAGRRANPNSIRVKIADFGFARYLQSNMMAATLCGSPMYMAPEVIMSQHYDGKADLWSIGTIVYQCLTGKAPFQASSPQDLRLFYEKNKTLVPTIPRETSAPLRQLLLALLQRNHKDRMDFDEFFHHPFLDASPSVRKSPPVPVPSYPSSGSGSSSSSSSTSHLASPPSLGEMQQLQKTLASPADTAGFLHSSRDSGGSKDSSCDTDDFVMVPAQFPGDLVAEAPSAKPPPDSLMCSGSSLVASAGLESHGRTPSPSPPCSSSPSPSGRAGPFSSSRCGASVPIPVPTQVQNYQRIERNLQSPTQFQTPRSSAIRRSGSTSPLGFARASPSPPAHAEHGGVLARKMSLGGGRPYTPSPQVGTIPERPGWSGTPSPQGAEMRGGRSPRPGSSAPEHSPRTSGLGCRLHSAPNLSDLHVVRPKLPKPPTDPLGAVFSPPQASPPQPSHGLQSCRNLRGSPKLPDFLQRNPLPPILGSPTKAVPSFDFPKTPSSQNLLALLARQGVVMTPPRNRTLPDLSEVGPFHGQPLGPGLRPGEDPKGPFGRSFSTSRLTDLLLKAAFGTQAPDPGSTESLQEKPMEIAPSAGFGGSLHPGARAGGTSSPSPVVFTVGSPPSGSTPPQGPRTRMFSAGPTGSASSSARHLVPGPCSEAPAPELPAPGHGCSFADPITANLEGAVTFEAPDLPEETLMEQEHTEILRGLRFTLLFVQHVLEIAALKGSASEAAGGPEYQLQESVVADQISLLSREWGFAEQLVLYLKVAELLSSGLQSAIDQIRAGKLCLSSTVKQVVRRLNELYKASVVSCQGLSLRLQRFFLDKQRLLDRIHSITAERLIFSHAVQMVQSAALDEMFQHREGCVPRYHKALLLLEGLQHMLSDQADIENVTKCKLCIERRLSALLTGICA
Method: as §1, §2

[4] = biological target: T3, YSK4 (Homo sapiens, UniProt Q56UN5)
T3 sequence (Q56UN5 1-1328): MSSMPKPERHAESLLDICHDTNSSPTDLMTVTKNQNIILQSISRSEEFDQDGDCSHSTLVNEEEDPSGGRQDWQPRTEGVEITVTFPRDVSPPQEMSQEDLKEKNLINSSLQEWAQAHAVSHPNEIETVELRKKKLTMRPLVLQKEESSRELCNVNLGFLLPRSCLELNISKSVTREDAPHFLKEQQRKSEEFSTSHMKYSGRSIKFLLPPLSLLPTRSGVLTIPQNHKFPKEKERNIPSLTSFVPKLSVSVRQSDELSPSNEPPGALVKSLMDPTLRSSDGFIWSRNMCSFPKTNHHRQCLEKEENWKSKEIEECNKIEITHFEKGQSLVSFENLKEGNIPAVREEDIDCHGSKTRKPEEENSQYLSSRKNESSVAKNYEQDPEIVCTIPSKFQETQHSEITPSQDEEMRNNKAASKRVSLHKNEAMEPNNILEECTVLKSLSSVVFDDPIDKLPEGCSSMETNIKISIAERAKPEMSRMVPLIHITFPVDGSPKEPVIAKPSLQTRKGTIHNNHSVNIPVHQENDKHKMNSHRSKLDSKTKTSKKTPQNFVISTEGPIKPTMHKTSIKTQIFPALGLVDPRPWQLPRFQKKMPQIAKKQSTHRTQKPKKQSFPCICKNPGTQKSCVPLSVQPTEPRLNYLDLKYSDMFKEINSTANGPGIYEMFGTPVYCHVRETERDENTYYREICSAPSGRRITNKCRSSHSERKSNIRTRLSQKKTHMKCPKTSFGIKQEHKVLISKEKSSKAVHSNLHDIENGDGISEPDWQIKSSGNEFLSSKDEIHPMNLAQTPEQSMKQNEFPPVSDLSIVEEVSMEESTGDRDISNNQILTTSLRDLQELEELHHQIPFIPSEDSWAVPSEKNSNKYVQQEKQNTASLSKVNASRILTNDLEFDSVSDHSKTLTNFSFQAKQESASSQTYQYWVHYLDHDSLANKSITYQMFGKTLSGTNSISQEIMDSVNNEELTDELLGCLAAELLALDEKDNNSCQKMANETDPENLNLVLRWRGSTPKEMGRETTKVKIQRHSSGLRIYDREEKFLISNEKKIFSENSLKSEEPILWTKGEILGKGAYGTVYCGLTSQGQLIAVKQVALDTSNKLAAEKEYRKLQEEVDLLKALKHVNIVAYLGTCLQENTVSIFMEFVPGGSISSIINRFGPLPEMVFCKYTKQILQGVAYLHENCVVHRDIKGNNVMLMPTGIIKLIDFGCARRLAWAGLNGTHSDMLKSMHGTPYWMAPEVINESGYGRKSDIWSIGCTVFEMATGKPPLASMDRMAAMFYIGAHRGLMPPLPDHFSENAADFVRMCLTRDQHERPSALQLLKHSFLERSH
Method: as §1, §2

[5] = biological target: PIK4CB (Homo sapiens, UniProt Q9UBF8)
Chain of PIK4CB (Q9UBF8 whole entry, species assumed): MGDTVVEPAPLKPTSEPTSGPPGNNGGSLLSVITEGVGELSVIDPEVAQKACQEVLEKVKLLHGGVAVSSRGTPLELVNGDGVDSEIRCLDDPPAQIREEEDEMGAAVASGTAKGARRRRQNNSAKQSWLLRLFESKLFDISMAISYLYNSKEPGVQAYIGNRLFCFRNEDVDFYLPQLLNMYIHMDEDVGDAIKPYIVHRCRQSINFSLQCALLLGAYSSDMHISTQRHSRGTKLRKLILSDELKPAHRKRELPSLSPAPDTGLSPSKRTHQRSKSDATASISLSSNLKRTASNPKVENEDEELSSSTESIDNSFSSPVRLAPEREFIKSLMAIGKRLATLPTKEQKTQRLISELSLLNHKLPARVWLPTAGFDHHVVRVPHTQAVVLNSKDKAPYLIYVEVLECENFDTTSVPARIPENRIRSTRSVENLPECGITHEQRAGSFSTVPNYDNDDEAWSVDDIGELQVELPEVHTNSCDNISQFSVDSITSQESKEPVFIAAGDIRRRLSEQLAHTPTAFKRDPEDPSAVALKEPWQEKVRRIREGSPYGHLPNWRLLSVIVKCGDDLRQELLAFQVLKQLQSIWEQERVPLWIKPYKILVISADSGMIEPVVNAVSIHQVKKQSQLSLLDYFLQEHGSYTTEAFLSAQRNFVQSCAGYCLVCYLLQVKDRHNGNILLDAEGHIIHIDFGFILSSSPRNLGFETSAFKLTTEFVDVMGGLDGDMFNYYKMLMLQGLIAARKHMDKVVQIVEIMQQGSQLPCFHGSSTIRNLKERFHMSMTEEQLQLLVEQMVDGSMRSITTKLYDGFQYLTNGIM
Method: as §1, §2

T1 sequence (Q15418 whole entry): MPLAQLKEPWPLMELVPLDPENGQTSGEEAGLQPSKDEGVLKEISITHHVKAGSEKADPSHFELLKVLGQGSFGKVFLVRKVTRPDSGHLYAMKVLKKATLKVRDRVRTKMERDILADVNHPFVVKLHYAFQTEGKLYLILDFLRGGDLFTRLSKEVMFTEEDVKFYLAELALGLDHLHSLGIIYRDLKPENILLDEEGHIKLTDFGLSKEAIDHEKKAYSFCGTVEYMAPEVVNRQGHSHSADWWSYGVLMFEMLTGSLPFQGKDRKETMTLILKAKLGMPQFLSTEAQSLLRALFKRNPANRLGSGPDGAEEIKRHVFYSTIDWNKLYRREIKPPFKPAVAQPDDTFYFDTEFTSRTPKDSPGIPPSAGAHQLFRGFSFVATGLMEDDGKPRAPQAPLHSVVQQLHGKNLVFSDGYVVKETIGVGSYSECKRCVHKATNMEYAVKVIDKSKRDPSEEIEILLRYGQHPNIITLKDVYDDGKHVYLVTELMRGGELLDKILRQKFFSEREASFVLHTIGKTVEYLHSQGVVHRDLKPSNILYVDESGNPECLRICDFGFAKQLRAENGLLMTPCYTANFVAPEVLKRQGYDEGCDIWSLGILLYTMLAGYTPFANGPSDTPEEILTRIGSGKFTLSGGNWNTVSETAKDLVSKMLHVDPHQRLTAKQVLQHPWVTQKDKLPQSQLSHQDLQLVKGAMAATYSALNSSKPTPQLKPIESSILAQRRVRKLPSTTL

Compound	Kd [1]	Kd [2]	Kd [3]	Kd [4]	Kd [5]
Nc1nc2c(-c3ccccn3)nccc2[nH]1 [drawing 35, 4-(pyrid-2-yl)-1H-imidazo[4,5-c]pyridin-2-amine]	530 nM	1500 nM	24000 nM	220 nM	
Nc1nc2c(-c3cnc4ccccc4c3)nccc2[nH]1 [drawing 36, 4-(quinolin-3-yl)-1H-imidazo[4,5-c]pyridin-2-amine]					350 nM

From patent US20110152313A1 (MACQUARIE UNIVERSITY, priority 2008, published 2011)
